Counter-ions that a name gives are not always drawn. Like-named read-outs stand apart in the source and are kept apart here.

The target of test [1] is T1, Human vitronectin receptor (αv β3) (Homo sapiens, UniProt P05106+P06756).
T1 construct: Human vitronectin receptor (αv β3) was purified from human placenta; from tissue; host or cells: human placenta
The test can be described thus: Vitronectin adhesion assay (solid phase receptor assay, αvβ3). Type of test: binding. As to the method: (§1) The activity of the compounds of the present invention was tested in the following assays.
Human vitronectin receptor (αv β3) was purified from human placenta as previously described [Pytela et al., Methods in Enzymology, 144:475-489 (1987)]. Human vitronectin was purified from fresh frozen plasma as previously described [Yatohgo et al., Cell Structure and Function, 13:281-292 (1988)]. Biotinylated human vitronectin was prepared by coupling NHS-biotin from Pierce Chemical Company (Rockford, Ill.) to purified vitronectin as previously described [Charo et al., J. Biol. Chem., 266(3):1415-1421 (1991)]. Assay buffer, OPD substrate tablets, and RIA grade BSA were obtained from Sigma (St. Louis, Mo.). Anti-biotin antibody was obtained from Calbiochem (La Jolla, Calif.). Linbro microtiter plates were obtained from Flow Labs (McLean, Va.). ADP reagent was obtained from Sigma (St. Louis, Mo.).
(§2) Solid Phase Receptor Assays
This assay was essentially the same as previously reported [Niiya et al., Blood, 70:475-483 (1987)]. The purified human vitronectin receptor (αv β3) was diluted from stock solutions to […] in Tris-buffered saline containing 1.0 mM Ca^++, Mg^++, and Mn^++, pH 7.4 (TBS^+++). The diluted receptor was immediately transferred to Linbro microtiter plates at 100 μL/well (100 ng receptor/well). The plates were sealed and incubated overnight at 4° C. to allow the receptor to bind to the wells. All remaining steps were at room temperature. The assay plates were emptied and 200 μL, of 1% RIA grade BSA in TBS^+++ (TBS^+++ /BSA) were added to block exposed plastic surfaces. Following a 2 hour incubation, the assay plates were washed with TBS^+++ using a 96 well plate washer. Logarithmic serial dilution of the test compound and controls were made starting at a stock concentration of 2 mM and using 2 nM biotinylated vitronectin in TBS^+++ /BSA as the diluent. This premixing of labeled ligand with test (or control) ligand, and subsequent transfer of 50 μL aliquots to the assay plate was carried out with a CETUS Propette robot; the final concentration of the labeled ligand was 1 nM and the highest concentration of test compound was 1.0×10^-4 M. The competition occurred for two hours after which all wells were washed with a plate washer as before. Affinity purified horseradish peroxidase labeled goat anti-biotin antibody was diluted 1:3000 in TBS^+++ /BSA and 125 μL were added to each well. After 30 minutes, the plates were washed and incubated with OPD/H2 O2 substrate in 100 mM/L Citrate buffer, pH 5.0. The plate was read with a microtiter plate reader at a wavelength of 450 nm and when the maximum-binding control wells reached an absorbance of about 1.0, the final A450 were recorded for analysis. The data were analyzed using a macro written for use with the EXCEL™ spreadsheet program. The mean, standard deviation, and % CV were determined for duplicate concentrations. The mean A450 values were normalized to the mean of four maximum-binding controls (no competitor added) (B-MAX). The normalized values were subjected to a four parameter curve fit algorithm [Rodbard et al., Int.

Test [2] has as its target T2, Human fibrinogen receptor (αIIb β3) (Homo sapiens, UniProt P05106+P08514).
T2 construct: Human fibrinogen receptor (αIIb β3) was purified from outdated platelets; from tissue; host or cells: human outdated platelets
The test can be described thus: Purified IIb/IIIa receptor assay (solid phase receptor assay). As to conditions: inhibition of binding of biotinylated human vitronectin (1 nM) to purified receptor; Table I. How it is done: as §1
Human fibrinogen receptor (αIIb β3) was purified from outdated platelets. (Pytela, R., Pierschbacher, M. D., Argraves, S., Suzuki, S., and Rouslahti, E. "Arginine-Glycine-Aspartic acid adhesion receptors", Methods in Enzymology 144(1987):475-489.) Human vitronectin was purified from fresh frozen plasma as described in Yatohgo, T., Izumi, M., Kashiwagi, H., and Hayashi, M., "Novel purification of vitronectin from human plasma by heparin affinity chromatography," Cell Structure and Function 13(1988):281-292. Biotinylated human vitronectin was prepared by coupling NHS-biotin from Pierce Chemical Company (Rockford, Ill.) to purified vitronectin as previously described. (Charo, I. F., Nannizzi, L., Phillips, D. R., Hsu, M. A., Scarborough, R. M., "Inhibition of fibrinogen binding to GP IIb/IIIa by a GP IIIa peptide", J. Biol. Chem. 266(3) (1991): 1415-1421.) Assay buffer, OPD substrate tablets, and RIA grade BSA were obtained from Sigma (St. Louis, Mo.). Anti-biotin antibody was obtained from Calbiochem (La Jolla, Calif.). Linbro microtiter plates were obtained from Flow Labs (McLean, Va.). ADP reagent was obtained from Sigma (St. Louis, Mo.).
as §2
This assay is essentially the same reported in Niiya, K., Hodson, E., Bader, R., Byers-Ward, V. Koziol, J. A., Plow, E. F. and Ruggeri, Z. M., "Increased surface expression of the membrane glycoprotein IIb/IIIa complex induced by platelet activation: Relationships to the binding of fibrinogen and platelet aggregation", Blood 70 (1987):475-483. The purified human fibrinogen receptor (αIIb β3) was diluted from stock solutions to 1.0 μg/mL in Tris-buffered saline containing 1.0 mM Ca^++, Mg^++, and Mn^++, pH 7.4 (TBS^+++). The diluted receptor was immediately transferred to Linbro microtiter plates at 100 μL/well (100 ng receptor/well). The plates were sealed and incubated overnight at 4° C. to allow the receptor to bind to the wells. All remaining steps were at room temperature. The assay plates were emptied and 200 μL of 1% RIA grade BSA in TBS^+++ (TBS^+++ /BSA) were added to block exposed plastic surfaces. Following a 2 hour incubation, the assay plates were washed with TBS^+++ using a 96 well plate washer. Logarithmic serial dilution of the test compound and controls were made starting at a stock concentration of 2 mM and using 2 nM biotinylated vitronectin in TBS^+++ /BSA as the diluent. This premixing of labeled ligand with test (or control) ligand, and subsequent transfer of 50 μL aliquots to the assay plate was carried out with a CETUS Propette robot; the final concentration of the labeled ligand was 1 nM and the highest concentration of test compound was 1.0×10^-4 M. The competition occurred for two hours after which all wells were washed with a plate washer as before. Affinity purified horseradish peroxidase labeled goat anti-biotin antibody was diluted 1:3000 in TBS^+++ /BSA and 125 μL were added to each well. After 30 minutes, the plates were washed and incubated with […]/H2 O2 substrate in 100 mM/L citrate buffer, pH 5.0. The plate was read with a microtiter plate reader at a wavelength of 450 nm and when the maximum-binding control wells reached an absorbance of about 1.0, the final A450 were recorded for analysis. The data were analyzed using a macro written for use with the EXCEL™ spreadsheet program. The mean, standard deviation, and % CV were determined for duplicate concentrations. The mean A450 values were normalized to the mean of four maximum-binding controls (no competitor added) (B-MAX). The normalized values were subjected to a four parameter curve fit algorithm, [Robard et al., Int.

[3] abbreviates: inhibition of binding of biotinylated human vitronectin (1 nM) to purified receptor, Table I, read-out: AvB3 IC50.

T1 sequence (P06756 31-889 limits assumed): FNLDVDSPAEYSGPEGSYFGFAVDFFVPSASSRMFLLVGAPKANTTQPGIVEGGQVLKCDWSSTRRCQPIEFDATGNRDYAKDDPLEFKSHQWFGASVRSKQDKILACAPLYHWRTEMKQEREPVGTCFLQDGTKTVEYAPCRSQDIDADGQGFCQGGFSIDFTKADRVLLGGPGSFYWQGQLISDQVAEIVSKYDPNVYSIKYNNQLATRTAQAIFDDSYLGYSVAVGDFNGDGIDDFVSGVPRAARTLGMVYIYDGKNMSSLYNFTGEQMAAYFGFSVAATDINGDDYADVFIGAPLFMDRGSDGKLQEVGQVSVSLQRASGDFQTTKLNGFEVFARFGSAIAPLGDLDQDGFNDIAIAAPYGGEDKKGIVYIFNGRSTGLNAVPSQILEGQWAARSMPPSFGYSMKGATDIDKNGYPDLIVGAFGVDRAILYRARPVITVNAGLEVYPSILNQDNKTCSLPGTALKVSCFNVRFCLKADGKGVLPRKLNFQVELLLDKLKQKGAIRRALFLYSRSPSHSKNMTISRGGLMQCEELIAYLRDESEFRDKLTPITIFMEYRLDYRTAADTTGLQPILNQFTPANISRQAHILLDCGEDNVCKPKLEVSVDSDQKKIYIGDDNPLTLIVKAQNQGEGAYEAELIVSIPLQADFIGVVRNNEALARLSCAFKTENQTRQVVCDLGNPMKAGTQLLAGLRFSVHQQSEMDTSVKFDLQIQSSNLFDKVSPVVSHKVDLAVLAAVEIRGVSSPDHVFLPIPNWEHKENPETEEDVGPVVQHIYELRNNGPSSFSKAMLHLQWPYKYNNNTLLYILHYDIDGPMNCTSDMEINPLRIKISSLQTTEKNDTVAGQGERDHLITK
T1 sequence (P06756 891-1048 limits assumed): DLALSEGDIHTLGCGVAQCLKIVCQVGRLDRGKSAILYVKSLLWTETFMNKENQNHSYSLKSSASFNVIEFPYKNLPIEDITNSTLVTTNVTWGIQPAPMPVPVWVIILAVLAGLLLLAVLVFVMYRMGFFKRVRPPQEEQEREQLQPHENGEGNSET
T1 sequence (P05106 27-788): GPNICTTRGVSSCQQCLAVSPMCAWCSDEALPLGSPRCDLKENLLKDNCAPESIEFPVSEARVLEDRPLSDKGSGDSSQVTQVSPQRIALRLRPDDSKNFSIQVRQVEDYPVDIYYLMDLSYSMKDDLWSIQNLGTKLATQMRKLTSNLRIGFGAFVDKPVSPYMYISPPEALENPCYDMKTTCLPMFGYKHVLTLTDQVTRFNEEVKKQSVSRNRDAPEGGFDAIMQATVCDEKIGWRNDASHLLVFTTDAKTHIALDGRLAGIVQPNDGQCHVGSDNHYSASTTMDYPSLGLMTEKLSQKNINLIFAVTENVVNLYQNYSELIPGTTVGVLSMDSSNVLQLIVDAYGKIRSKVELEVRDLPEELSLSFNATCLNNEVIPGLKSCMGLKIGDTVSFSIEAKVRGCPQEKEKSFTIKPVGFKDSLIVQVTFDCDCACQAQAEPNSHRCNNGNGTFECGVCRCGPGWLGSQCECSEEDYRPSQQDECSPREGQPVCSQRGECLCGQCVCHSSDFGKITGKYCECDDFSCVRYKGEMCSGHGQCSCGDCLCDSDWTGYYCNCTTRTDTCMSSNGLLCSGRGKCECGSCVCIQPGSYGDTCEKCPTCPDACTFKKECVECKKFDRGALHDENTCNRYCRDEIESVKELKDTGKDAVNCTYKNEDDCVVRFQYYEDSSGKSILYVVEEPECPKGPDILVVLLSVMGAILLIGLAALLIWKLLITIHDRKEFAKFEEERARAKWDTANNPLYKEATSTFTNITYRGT
T2 sequence (P08514 32-887 limits assumed): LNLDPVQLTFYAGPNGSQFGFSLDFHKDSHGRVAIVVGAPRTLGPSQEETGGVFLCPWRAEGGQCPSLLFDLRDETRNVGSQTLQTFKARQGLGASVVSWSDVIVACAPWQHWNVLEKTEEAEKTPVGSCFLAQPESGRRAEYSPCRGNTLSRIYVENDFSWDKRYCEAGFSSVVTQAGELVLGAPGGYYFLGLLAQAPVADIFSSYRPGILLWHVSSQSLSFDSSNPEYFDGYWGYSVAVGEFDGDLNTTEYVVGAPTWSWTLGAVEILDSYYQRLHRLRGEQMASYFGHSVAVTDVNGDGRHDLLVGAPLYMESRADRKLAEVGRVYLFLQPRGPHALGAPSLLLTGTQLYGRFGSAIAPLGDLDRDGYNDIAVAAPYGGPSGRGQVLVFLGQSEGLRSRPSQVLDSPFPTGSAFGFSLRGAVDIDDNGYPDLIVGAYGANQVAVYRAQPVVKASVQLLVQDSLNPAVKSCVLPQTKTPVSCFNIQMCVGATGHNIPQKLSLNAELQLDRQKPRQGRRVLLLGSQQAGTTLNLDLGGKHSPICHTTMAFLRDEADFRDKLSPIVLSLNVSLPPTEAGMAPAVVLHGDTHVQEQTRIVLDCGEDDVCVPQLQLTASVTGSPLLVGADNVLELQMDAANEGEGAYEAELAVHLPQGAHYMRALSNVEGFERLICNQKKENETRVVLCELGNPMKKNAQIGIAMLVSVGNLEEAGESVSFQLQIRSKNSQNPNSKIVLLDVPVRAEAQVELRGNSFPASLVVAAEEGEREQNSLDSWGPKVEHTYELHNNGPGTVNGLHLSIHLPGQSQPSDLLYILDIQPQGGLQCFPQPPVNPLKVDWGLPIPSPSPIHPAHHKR
T2 sequence (P08514 891-1039 limits assumed): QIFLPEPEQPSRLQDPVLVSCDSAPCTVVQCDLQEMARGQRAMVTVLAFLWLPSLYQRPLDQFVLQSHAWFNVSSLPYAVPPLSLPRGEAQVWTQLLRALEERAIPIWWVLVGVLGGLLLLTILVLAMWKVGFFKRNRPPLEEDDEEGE
T2 sequence (P05106 27-788): as the sequence (P05106 27-788) above

As a reminder, the IC50 is the concentration that inhibits the measured activity by half. Take `O=C(O)/C=C/c1cccc(CCC(=O)c2cccc(NC3=NCCCN3)c2)c1` [Example 95, 3-[3-[3-oxo-3-[3-[(1,4,5,6-tetrahydropyrimidin-2-yl)amino]phenyl]propyl]phenyl]propenoic acid, trifluoroacetate salt hydrate]: the half-maximal inhibitory concentration (IC50) is 58.5 nM in test [1] (setting [3]) and 11800 nM in test [2].

Take `N=C(N)Nc1cccc(C(=O)Nc2ccc(/C=C/C(=O)O)c3ccccc23)c1` [Example 16, 3-[4-[[[3-[(aminoiminomethyl)amino]phenyl]carbonyl]-amino]naphthalen-1-yl]-2E-propenoic acid, trifluoroacetate salt]: the IC50 in test [1] (setting [3]) was 50.9 nM; in test [2], 25.4 nM.

As to `N=C(N)Nc1cccc(/C=C/C(=O)c2cccc(/C=C/C(=O)O)c2)c1` [Example 88, 3-[3-[3-[3-[(aminoiminomethyl)amino]phenyl]-1-oxopropenyl]phenyl]propenoic acid, trifluoroacetate salt], the figures for the half-inhibitory concentration (IC50) in test [1] (setting [3]) and in test [2] were 37.3 nM and 2610 nM, respectively.

For `Cc1cc(/C=C/C(=O)O)cc(Cl)c1NC(=O)c1cccc(NC(=N)N)c1` [Example 15, 3-[4-[[[3-[(aminoiminomethyl)amino]phenyl]carbonyl]-amino]-3-chloro-5-methylphenyl]-2E-propenoic acid, trifluoroacetate salt], the IC50 amounted to 28.8 nM in test [1] (setting [3]) and 2620 nM in test [2].

With `O=C(O)/C=C/c1ccc(/C=C/c2cccc(NC3=NCCCS3)c2)cc1` [Example 100, 3-[4-[2-[3-[(5,6-dihydro-4H-thiazin-2-yl)amino]phenyl]ethenyl]phenyl]propenoic acid, trifluoroacetate salt], the IC50 in test [1] (setting [3]) stood at 30.6 nM; in test [2], 664 nM.

For the compound `N=C(N)Nc1cccc(C(=O)CCc2cccc(/C=C/C(=O)O)c2)c1` [Example 91, 3-[3-[3-[3-[(aminoiminomethyl)amino]phenyl]-3-oxopropyl]phenyl]propenoic acid, trifluoroacetate salt hydrate], the IC50 in test [1] (setting [3]) is 1270 nM; in test [2], 8670 nM.

In the case of `O=C(O)/C=C/c1cccc(C(=O)COc2cccc(NC3=NCCN3)c2)c1` [Example 83, 3-[3-[2-[3-[(4,5-dihydro-1H-imidazol-2-yl)amino]phenoxy]acetyl]phenyl]propenoic acid, trifluoroacetate salt], the values for the IC50 in test [1] (setting [3]) and in test [2] were 21.7 nM and 10000 nM, respectively.

On to `CC(C)COC(=O)N1CCN=C1Nc1cccc(C(=O)NCc2cccc(/C=C/C(=O)O)c2)c1` [Example 65, 3-[3-[[[[3-[[4,5-dihydro-1-[(2-methylpropoxy)carbonyl]-1H-imidazol-2-yl]amino]phenyl]carbonyl]amino]methyl]phenyl]propenoic acid, monohydrochloride hydrate], for which the IC50 in test [1] (setting [3]) was 12.1 nM; in test [2], 4950 nM.

With `N=C(N)Nc1cccc(C(O)CNc2cccc(/C=C/C(=O)O)c2)c1` (stereo not shown) [Example 81, 3-[3-[[2-[3-[(aminoiminomethyl)amino]phenyl]-2-hydroxyethyl]amino]phenyl]propenoic acid, (bis)trifluoroacetate salt hydrate], the IC50 in test [1] (setting [3]) turned out to be 54.3 nM; in test [2] it was 5020 nM.

Consider `O=C(O)/C=C/c1ccc2c(c1)CCN2C(=O)c1cccc(NC2=NCCN2)c1` [Example 77, 3-[1-[[3-[(4,5-dihydro-1H-imidazol-2-yl)amino]phenyl]carbonyl]2,3-dihydro-1H-indol-5-yl]propenoic acid, trifluoroacetate salt], for which the IC50 was determined as 12.3 nM in test [1] (setting [3]) and 231 nM in test [2].

For `COc1ccc(/C=C/C(=O)O)cc1C(=O)/C=C/c1cccc(NC(=N)N)c1` [Example 86, 3-[3-[3-[3-[(aminoiminomethyl)amino]phenyl]-1-oxopropenyl]-4-methoxyphenyl]propenoic acid, trifluoroacetate salt], the IC50 in test [1] (setting [3]) is 580 nM; in test [2], 563 nM.

Take `N=C(N)Nc1cccc(C(=O)COc2cccc(/C=C/C(=O)O)c2)c1` [Example 79, 3-[3-[2-[3-[(aminoimino)methyl]amino]phenyl]-2-oxoethoxy]phenyl]propenoic acid, trifluoroacetate salt]: the IC50 came out at 12 nM in test [1] (setting [3]) and 415 nM in test [2].

`O=C(O)/C=C/c1ccc(NC(=O)c2cccc(NC3=NCCCN3)c2)cc1C(=O)O` [Example 40A, 2-(2-carboxyethenyl)-5-[[[3-[(1,4,5,6-tetrahydropyrimidin-2-yl)amino]phenyl]carbonyl]amino]benzoic acid, trifluoroacetate salt]: the IC50 in test [1] (setting [3]) was 0.45 nM; in test [2] it was 97.2 nM.

For the compound `N=C(N)Nc1cccc(C(=O)Nc2ccc(/C=C/C(=O)O)c(Cl)c2)c1` [Example 28, 3-[4-[[[3-[(aminoiminomethyl)amino]phenyl]carbonyl]-amino]-2-chlorophenyl]propenoic acid, trifluoroacetate salt], the IC50 in test [1] (setting [3]) amounted to 23.3 nM.

As for `N=C(N)NCCCCC(=O)NCC(=O)NC(CC(=O)O)c1cccnc1` (stereo not drawn) [β-[[2-[[5-[(aminoiminomethyl)amino]-1-oxopentyl]amino]-1-oxoethyl]amino]-3-pyridinepropanoic acid], the IC50 in test [1] (positive control included on each plate, read-out: αv β3 antagonist IC50 of positive control) was 3 to 10 nM.

These data come from US5852210A, “Cinnamic acid derivatives” (G. D. Searle & Co., priority 1997, dated 1998).
